According to PMC9736855, “Discovery of 3-Amino-1H-pyrazole-Based Kinase Inhibitors to Illuminate the Understudied PCTAIRE Family” (International Journal of Molecular Sciences, 2022):
“And” between values parts separate entries of the source, which are not always exact repeats. Identical values can stand only once.

Assays:
Format in all cases: binding
[1] = system: in-house panel of 89–105 kinases; test: DSF selectivity screen
Excerpt: To investigate the selectivity profile of the different series, a differential scanning fluorimetry (DSF) assay was used. This assay offers a rapid and sensitive screening method that determines the denaturation temperature of a protein in absence and presence of a compound. This assay format measures the fluorescence of a dye, which depends on the folding state of the protein. The difference between the melting temperature (ΔTm) in the absence and presence of the compound represents the binding strength to the protein. We used an in-house panel of 89–105 kinases to screen all synthesized inhibitors (Tables S1–S3).
Measurements were performed in duplicates.

[2] = molecular target: T1, DAPK3 (Homo sapiens, UniProt O43293); test: DSF
T1 construct: purchased in-house DSF panel (SGC Frankfurt)
T1 sequence (O43293 9-289): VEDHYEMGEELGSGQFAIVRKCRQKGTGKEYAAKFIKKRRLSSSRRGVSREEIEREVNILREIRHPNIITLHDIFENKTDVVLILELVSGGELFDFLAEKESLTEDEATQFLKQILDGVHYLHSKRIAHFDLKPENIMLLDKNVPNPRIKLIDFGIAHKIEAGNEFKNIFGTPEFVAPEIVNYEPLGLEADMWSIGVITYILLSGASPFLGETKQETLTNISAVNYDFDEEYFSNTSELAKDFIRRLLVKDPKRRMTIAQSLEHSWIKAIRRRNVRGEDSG
Method: (§1) Recombinant protein kinase domains with a concentration of 2 μM were mixed with a 10 μM compound solution in DMSO, 20 mM HEPES, pH 7.5, and 500 mM NaCl. SYPRO Orange (5000×, Invitrogen) was added as a fluorescence probe (1 µl per mL). Subsequently, temperature-dependent protein unfolding profiles were measured, using the QuantStudio™ 5 realtime PCR machine (Thermo Fisher, Waltham, MA, USA). […] The temperature was raised with a step rate of 3 °C per minute. Data points were analyzed with the internal software (Thermal Shift SoftwareTM Version 1.4, Thermo Fisher) using the Boltzmann equation to determine the inflection point of the transition curve [56]. Differences in melting temperature are given as ΔTm values in °C. Measurements were performed in duplicates.

[3] = molecular target: T2, CLK3 (Homo sapiens, UniProt P49761); test: DSF
T2 construct: purchased in-house DSF panel (SGC Frankfurt)
T2 sequence (P49761 127-484): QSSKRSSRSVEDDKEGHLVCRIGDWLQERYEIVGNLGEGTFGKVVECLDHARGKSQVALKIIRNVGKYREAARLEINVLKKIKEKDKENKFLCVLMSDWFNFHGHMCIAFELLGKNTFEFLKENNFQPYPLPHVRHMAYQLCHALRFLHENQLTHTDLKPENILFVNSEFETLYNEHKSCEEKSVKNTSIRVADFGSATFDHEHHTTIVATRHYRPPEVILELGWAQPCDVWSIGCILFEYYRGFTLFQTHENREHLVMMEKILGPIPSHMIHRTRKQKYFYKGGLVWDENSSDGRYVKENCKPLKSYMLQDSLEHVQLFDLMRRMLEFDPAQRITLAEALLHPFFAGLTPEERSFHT
Method: as §1

[4] = molecular target: T3, MAPK14 (Homo sapiens, UniProt Q16539); test: DSF
T3 construct: purchased in-house DSF panel (SGC Frankfurt)
T3 sequence (Q16539 whole entry): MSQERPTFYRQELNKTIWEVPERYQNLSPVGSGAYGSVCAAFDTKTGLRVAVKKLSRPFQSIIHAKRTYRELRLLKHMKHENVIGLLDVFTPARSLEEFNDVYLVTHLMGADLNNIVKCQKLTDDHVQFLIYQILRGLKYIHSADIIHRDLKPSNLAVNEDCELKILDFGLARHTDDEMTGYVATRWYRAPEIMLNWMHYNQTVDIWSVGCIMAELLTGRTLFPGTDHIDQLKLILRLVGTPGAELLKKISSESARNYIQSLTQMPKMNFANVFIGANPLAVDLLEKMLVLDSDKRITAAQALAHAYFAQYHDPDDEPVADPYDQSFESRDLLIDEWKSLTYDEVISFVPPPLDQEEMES
Method: as §1

[5] = molecular target: T4, BMPR2 (Homo sapiens, UniProt Q13873); test: DSF
T4 construct: purchased in-house DSF panel (SGC Frankfurt)
T4 sequence (Q13873 27-1038): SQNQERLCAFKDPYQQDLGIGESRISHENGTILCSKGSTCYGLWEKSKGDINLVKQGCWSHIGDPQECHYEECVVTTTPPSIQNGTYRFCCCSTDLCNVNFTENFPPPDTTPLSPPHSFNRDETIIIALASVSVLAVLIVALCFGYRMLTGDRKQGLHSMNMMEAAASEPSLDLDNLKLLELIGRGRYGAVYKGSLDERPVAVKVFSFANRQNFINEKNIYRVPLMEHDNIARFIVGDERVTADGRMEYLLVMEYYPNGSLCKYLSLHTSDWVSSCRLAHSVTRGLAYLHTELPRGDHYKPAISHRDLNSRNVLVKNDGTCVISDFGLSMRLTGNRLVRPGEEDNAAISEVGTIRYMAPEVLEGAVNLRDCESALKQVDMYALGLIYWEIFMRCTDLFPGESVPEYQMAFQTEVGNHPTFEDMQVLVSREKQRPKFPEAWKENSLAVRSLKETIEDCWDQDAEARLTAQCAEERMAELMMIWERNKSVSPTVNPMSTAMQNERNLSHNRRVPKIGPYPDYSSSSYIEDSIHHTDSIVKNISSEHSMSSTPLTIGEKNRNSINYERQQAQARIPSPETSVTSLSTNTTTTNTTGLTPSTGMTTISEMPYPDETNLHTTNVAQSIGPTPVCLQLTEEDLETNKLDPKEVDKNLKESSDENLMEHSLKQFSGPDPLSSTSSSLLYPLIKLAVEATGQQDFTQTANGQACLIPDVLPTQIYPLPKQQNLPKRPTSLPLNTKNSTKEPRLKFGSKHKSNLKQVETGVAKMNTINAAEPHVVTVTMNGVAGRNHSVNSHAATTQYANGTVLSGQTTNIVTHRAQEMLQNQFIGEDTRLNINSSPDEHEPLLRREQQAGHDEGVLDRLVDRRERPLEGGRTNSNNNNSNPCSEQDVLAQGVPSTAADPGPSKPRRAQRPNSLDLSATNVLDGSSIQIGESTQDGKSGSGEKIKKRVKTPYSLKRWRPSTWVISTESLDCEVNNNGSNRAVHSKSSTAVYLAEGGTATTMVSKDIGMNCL
Method: as §1

[6] = molecular target: T5, AAK1 (Homo sapiens, UniProt Q2M2I8); test: DSF
T5 construct: purchased in-house DSF panel (SGC Frankfurt)
T5 sequence (Q2M2I8 27-365): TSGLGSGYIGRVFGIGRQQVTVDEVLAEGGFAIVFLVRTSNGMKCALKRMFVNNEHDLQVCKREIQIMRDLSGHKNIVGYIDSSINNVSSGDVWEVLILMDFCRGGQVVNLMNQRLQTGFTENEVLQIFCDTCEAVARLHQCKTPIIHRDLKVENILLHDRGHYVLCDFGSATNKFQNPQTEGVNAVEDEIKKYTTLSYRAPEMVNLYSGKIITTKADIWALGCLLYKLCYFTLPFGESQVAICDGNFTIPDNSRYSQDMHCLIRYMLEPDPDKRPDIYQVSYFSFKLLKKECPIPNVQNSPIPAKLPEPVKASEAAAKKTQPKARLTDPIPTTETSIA
Method: as §1

[7] = molecular target: T6, EPHA2 (Homo sapiens, UniProt P29317); test: DSF
T6 construct: purchased in-house DSF panel (SGC Frankfurt)
T6 sequence (P29317 596-900): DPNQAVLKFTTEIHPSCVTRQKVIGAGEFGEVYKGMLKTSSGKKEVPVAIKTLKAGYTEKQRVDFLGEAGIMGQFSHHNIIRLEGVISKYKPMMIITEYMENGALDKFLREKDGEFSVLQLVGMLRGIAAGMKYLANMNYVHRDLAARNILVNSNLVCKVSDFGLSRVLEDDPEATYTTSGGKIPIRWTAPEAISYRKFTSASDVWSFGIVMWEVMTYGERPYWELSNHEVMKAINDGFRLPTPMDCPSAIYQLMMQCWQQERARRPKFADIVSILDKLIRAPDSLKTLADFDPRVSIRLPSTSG
Method: as §1

[8] = molecular target: T7, DMPK1 (Homo sapiens, UniProt Q09013); test: DSF
T7 construct: purchased in-house DSF panel (SGC Frankfurt)
T7 sequence (Q09013 1-629): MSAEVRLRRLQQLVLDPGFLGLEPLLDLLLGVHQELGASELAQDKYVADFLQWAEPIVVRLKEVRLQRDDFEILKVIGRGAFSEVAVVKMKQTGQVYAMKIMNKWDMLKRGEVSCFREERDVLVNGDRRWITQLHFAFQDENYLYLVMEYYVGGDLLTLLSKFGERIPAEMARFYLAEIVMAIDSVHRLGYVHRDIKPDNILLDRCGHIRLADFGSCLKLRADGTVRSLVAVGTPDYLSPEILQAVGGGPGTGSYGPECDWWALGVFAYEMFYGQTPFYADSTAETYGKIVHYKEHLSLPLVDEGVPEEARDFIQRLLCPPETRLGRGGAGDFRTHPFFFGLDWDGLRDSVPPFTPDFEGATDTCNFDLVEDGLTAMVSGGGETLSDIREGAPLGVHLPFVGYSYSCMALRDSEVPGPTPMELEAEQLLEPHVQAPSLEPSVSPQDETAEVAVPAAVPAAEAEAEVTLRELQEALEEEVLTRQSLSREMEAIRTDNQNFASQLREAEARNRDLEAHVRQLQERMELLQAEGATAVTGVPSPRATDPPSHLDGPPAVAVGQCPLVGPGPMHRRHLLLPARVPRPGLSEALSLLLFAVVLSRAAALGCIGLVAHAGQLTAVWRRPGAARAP
Method: as §1

[9] = molecular target: T8, GSG2 (Homo sapiens, UniProt Q8TF76); test: DSF
T8 construct: purchased in-house DSF panel (SGC Frankfurt)
T8 sequence (Q8TF76 465-798): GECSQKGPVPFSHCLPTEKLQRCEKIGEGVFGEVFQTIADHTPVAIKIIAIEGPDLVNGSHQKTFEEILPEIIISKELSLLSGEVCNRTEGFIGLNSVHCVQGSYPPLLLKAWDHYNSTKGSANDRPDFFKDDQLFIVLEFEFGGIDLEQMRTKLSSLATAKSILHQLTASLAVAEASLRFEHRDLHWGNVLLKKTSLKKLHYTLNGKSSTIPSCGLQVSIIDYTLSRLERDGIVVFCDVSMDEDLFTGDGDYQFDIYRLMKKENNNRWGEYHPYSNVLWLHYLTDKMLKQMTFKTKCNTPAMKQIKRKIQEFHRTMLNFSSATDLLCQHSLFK
Method: as §1

SMILES | kinases beside CDK16 with DSF shift >5 °C (potential off-targets) [1] | ΔTm DAPK3 [2] | ΔTm CLK3 [3] | ΔTm MAPK14 [4] | ΔTm BMPR2 [5] | ΔTm AAK1 [6] | ΔTm EPHA2 [7] | ΔTm DMPK1 [8] | ΔTm GSG2 [9] | Kinases with shifts > 5°C ([1]; number of kinases of the DSF panel)
CC(C)OC(=O)c1cc(Nc2ccnc(NCc3ccc(NC(=O)OC(C)(C)C)cc3)n2)n[nH]1 [42d, isopropyl 3-((2-((4-((tert-butoxycarbonyl)amino)benzyl)amino)pyrimidin-4-yl)amino)-1H-pyrazole-5-carboxylate] | 1–2 and 1 | 0.1 °C | -0.4 °C | -0.5 °C | 0.9 °C | 0.5 °C | 0.6 °C | -0.1 °C | 0.5 °C | –
CC(C)(C)OC(=O)Nc1ccc(CNc2nccc(Nc3cc(C(=O)OC(C)(C)C)[nH]n3)n2)cc1 [43d, tert-butyl 3-((2-((4-((tert-butoxycarbonyl)amino)benzyl)amino)pyrimidin-4-yl)amino)-1H-pyrazole-5-carboxylate] | 1–2 and 2 | 0.3 °C | 0.0 °C | -0.3 °C | 1.4 °C | 1.0 °C | 1.3 °C | -0.1 °C | -0.3 °C | –
COC(=O)c1cc(Nc2ccnc(NCCOCCNC(=O)OC(C)(C)C)n2)[nH]n1 [21d, methyl 5-((2-((2-(2-((tert-butoxycarbonyl)amino)ethoxy)ethyl)amino)pyrimidin-4-yl)amino)-1H-pyrazole-3-carboxylate] | – | 3.3 °C | 1.1 °C | -0.3 °C | 0.7 °C | 4.1 °C | 0.2 °C | 0.5 °C | 0.2 °C | –
N#CCc1ccc(Nc2nccc(Nc3cc(C4CC4)[nH]n3)n2)cc1 [compound 1, reference compound] | – | 9.7 °C | 11.3 °C | 2.5 °C | 9.2 °C | 13.8 °C | 8.4 °C | 3.2 °C | 2.9 °C | –
COC(=O)c1cc(Nc2ccnc(NCc3ccc(NC(=O)OC(C)(C)C)cc3)n2)[nH]n1 [21i, methyl 5-((2-((4-((tert-butoxycarbonyl)amino)benzyl)amino)pyrimidin-4-yl)amino)-1H-pyrazole-3-carboxylate] | – | -0.6 °C | 0.4 °C | -0.6 °C | 1.1 °C | 2.0 °C | 0.4 °C | 0.1 °C | -0.2 °C | 4–9
